Measurements from paper PMC5736175, “Nicotinic alpha 7 receptor agonists EVP-6124 and BMS-933043, attenuate scopolamine-induced deficits in visuo-spatial paired associates learning” (PLoS ONE, 2017).
Values joined by “and” are separate entries in the source; they are usually repeats but may differ in a detail not shown here. Equal entries are not always repeated.

Key:
[1] = Plasma pharmacokinetics in satellite animals (LC-MS/MS), 60 min after i.m. dose; settings: individual subjects
Protocol: (§1) For all compounds, plasma pharmacokinetic studies were conducted in a separate cohort of cynomolgus monkeys (N = 2–3 subjects per dose) before beginning vsPAL testing to help guide dose selection. Blood samples were obtained with the animals awake and sitting in a primate chair.
(§2) Plasma concentrations of test compounds were determined using LC-MS/MS assays. In brief, 50 μL plasma and sample containing compounds was extracted by protein precipitation method with 150 μL acetonitrile containing an internal standard. A 5 μL sample of supernatant was injected into the LC-MS/MS system. Analytes were separated by reversed phase chromatography and detection of each analyte was achieved through selected reaction monitoring mode of mass spectrometry. Samples were quantified by calculated peak area ratio of analyte and internal standard against a calibration curve.

[2] = Plasma concentration in vsPAL subjects immediately after completion of testing (LC-MS/MS); settings: individual subjects
Protocol: as §1, with “chair. For most test sessions with BMS-933043 and EVP-6124, plasma samples were also taken from a subset of vsPAL subjects (N = 4–5) immediately after completion of testing (mean (SD) sample collection time = 69.8 (9.8) min post injection).” for “chair.”
as §2

[3] = system: human nAChR α7; parameters: method as in PMID 27467081; settings: intrinsic activity; HEK293 cells expressing human nAChR α7; cited from earlier work
[4] = system: human nAChR α7; parameters: method as in PMID 20959364, PMID 22085888; settings: xenopus oocytes expressing human nAChR α7; cited from earlier work
[5] = system: 5-HT3 receptor; settings: cited from earlier work
[6] = parameters: method as in PMID 25438724; settings: 20 mg dose (maximal DSST effects), cited from earlier work

nM total compound in plasma from satellite animals, 60 min ([1]; 0.03 mg/kg i.m.): 4.1 nM and 3.5 nM
nM total compound in plasma from satellite animals, 60 min ([1]; 0.10 mg/kg i.m.): 9.5 nM
nM total compound in plasma from satellite animals, 60 min ([1]; 0.30 mg/kg i.m.): 39.6 nM
nM total compound in plasma from satellite animals, 60 min ([1]; 1.00 mg/kg i.m.): 103.0 nM
nM total compound in plasma post session ([2]; 0.01 mg/kg i.m., row): 1.526 nM and 1.174 nM and 1.539 nM
nM total compound in plasma post session ([2]; 0.03 mg/kg i.m.): 4.44 nM and 6.8 nM and 3.56 nM
nM total compound in plasma post session ([2]; 1.00 mg/kg i.m.): 196 nM and 145 nM and 188 nM and 192 nM
Structure (SMILES): Cl.O=C(N[C@H]1CN2CCC1CC2)c1cc2cccc(Cl)c2s1 [EVP-6124, (R)-7-chloro-N-(quinuclidin-3-yl)benzo[b]thiophene-2-carboxamide HCl]
nM total compound in plasma post session ([2]; 0.003 mg/kg i.m.): 0.5 nM and 1.4 nM and 1.6 nM and 1.1 nM and 0.496 nM
nM total compound in plasma post session ([2]; 0.10 mg/kg i.m.): 14.8 nM and 14.9 nM and 11.8 nM and 10.9 nM
nM total compound in plasma post session ([2]; 0.30 mg/kg i.m.): 76.7 nM and 38.4 nM and 48.3 nM and 47.3 nM
net charge relative to acetylcholine [3]: 136%
peak current response relative to acetylcholine [3]: 32%
maximal peak current, % of the acetylcholine response [4]: 80%
5-HT3 receptor antagonism [5]: potent 5-HT3 receptor antagonists
plasma Cmax [6]: 10.4 ng/mL
Cmax ([6]; read-out: plasma Cmax): 32 nM
